Results on two compounds are retold here after ChEMBL document CHEMBL5696442, “Discovery of type II inhibitors of TGFβ-activated kinase 1 (TAK1) and mitogen-activated protein kinase kinase kinase kinase 2 (MAP4K2)” (J Med Chem, 2015).

The target in experiment [1] is T1, Serine/threonine-protein kinase D2 (Homo sapiens) (UniProt Q9BZL6).
T1 sequence (whole entry): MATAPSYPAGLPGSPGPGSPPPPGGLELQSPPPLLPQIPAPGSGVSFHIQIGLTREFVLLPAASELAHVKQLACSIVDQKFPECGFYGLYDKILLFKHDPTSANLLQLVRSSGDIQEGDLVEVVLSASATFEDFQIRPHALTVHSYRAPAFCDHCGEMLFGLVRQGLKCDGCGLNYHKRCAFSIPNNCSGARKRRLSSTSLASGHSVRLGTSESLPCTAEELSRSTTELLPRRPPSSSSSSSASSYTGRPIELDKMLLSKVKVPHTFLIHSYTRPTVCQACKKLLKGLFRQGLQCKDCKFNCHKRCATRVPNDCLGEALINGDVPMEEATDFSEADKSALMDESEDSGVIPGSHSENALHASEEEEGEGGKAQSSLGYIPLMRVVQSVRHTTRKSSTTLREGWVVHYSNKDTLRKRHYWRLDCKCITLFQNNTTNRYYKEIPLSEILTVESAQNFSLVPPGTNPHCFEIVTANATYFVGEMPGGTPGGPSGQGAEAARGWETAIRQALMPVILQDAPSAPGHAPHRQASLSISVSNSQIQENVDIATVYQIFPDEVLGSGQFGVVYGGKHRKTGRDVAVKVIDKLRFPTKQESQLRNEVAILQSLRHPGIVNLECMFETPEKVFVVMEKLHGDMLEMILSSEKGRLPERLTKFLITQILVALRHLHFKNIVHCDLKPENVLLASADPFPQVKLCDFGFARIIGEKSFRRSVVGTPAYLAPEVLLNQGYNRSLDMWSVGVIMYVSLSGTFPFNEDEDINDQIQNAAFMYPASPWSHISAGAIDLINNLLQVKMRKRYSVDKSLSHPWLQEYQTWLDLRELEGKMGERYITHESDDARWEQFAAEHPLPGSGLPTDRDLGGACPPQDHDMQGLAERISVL
The experiment is described as follows: Inhibition of PRKD2 (unknown origin) at 1 uM by Ambit Kinomescan binding assay relative to control.

Experiment [2] has as its target Casein kinase I isoform epsilon (Homo sapiens) (UniProt P49674). Kind of experiment: Inhibition of CK1epsilon Lys2 labeling site in human A-375 cells at 5 uM by KiNativ Profiling analysis relative to control. The experiment is classed as cell-based.
Experiment [3] deals with T2, Dual specificity mitogen-activated protein kinase kinase 7 (Homo sapiens) (UniProt O14733).
T2 sequence (whole entry): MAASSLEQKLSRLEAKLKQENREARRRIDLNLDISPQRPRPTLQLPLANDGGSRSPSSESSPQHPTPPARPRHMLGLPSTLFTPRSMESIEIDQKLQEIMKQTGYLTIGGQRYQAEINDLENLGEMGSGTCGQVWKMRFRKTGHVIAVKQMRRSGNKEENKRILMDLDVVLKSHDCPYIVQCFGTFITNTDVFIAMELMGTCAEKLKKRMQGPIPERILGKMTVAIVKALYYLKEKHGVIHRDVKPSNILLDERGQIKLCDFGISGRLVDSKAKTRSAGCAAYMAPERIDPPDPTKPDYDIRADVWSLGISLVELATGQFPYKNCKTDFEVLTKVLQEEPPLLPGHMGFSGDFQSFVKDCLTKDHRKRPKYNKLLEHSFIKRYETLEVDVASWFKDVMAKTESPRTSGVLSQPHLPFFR
The experiment is described as follows: Inhibition of MAP2K7 Lys2 labeling site in human A-375 cells at 5 uM by KiNativ Profiling analysis relative to control. Type of experiment: cell-based.

In experiment [4] the target is Serine/threonine-protein kinase pim-3 (Homo sapiens) (UniProt Q86V86). The experiment is described as follows: Inhibition of PIM3 (unknown origin) at 1 uM by Ambit Kinomescan binding assay relative to control; values are per cent of control.
For experiment [5], the target named is Insulin receptor (Homo sapiens) (UniProt P06213). The experiment is described as follows: Inhibition of INSR (unknown origin) at 10 uM by Ambit Kinomescan binding assay relative to control.
Insulin receptor (Homo sapiens), sequence (P06213 28-758 limits assumed): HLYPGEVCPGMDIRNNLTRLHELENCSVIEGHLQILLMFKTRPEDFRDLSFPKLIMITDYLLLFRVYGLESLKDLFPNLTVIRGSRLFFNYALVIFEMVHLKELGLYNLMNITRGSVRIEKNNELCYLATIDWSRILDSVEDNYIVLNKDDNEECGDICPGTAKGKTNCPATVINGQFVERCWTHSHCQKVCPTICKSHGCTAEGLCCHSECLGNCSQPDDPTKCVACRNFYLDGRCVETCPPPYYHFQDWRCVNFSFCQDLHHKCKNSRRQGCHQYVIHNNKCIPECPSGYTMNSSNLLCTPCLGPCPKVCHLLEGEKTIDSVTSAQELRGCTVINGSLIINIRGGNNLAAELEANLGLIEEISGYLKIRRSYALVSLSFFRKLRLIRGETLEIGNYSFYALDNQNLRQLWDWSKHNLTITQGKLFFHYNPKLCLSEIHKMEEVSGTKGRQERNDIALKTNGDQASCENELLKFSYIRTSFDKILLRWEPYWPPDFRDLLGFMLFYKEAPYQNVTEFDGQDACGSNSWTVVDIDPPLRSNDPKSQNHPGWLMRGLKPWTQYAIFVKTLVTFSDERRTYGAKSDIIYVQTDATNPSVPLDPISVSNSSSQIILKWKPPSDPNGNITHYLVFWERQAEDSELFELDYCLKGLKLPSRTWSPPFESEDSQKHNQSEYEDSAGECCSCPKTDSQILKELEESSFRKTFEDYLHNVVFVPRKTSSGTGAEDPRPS
Insulin receptor (Homo sapiens), sequence (P06213 763-1382 limits assumed): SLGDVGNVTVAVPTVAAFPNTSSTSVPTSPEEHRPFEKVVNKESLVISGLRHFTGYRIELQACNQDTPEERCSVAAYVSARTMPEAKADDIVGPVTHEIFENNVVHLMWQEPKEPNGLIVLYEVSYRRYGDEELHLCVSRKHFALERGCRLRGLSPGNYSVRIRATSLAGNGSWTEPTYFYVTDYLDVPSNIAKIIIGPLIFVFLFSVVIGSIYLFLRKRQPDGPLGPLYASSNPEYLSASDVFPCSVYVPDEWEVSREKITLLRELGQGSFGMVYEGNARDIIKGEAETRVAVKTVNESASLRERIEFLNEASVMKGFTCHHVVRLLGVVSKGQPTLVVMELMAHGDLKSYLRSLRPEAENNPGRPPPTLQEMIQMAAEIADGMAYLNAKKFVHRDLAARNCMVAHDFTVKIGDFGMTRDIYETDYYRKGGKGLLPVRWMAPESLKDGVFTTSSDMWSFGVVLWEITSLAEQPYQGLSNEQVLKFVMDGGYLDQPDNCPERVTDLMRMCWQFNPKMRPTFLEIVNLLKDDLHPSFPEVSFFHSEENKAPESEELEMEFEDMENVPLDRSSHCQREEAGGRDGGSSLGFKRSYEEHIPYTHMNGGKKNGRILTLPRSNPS
Experiment [6] addresses Hepatocyte growth factor receptor (Homo sapiens) (UniProt P08581). The experiment is described as follows: Inhibition of MET ACT labeling site in human A-375 cells at 0.5 uM by KiNativ Profiling analysis relative to control. The experiment is classed as cell-based.
For experiment [7], the target named is Fibroblast growth factor receptor 1 (Homo sapiens) (UniProt P11362). Kind of experiment: Inhibition of FGFR1 (unknown origin) at 10 uM by Ambit Kinomescan binding assay relative to control; values are per cent of control.
Fibroblast growth factor receptor 1 (Homo sapiens), sequence (P11362 22-822 limits assumed): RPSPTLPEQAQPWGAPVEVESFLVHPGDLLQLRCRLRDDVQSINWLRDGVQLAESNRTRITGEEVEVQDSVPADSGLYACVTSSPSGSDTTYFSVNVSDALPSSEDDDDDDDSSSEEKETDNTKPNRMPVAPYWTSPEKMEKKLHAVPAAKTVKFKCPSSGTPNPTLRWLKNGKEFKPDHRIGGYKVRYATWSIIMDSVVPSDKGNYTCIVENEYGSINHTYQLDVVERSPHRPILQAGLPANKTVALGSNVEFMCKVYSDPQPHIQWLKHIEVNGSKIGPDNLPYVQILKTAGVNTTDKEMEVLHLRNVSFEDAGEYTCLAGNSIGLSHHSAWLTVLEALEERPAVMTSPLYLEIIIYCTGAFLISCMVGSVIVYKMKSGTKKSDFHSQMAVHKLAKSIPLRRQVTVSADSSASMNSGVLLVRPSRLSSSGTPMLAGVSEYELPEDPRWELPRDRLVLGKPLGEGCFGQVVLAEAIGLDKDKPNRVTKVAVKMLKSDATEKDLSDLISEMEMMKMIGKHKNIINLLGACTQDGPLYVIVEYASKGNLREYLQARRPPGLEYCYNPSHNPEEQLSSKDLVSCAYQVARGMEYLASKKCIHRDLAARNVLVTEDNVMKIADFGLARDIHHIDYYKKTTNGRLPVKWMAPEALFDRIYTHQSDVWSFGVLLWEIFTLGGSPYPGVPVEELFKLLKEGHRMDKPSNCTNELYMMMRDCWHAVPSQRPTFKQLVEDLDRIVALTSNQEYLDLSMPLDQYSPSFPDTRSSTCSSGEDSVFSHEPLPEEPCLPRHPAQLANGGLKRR

Casein kinase I isoform epsilon (Homo sapiens), sequence (P49674 whole entry, looked up, canonical isoform): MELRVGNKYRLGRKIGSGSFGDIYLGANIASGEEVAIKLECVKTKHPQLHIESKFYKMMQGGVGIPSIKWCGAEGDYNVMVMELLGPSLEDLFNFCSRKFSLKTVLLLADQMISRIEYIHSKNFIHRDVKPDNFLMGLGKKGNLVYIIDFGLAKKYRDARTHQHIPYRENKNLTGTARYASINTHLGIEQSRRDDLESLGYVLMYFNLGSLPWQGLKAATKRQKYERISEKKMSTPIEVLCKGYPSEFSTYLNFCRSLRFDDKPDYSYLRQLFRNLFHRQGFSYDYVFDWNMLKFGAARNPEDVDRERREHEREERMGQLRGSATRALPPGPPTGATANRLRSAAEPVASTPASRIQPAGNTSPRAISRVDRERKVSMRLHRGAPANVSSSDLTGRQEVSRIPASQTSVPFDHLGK
Hepatocyte growth factor receptor (Homo sapiens), sequence (P08581 whole entry): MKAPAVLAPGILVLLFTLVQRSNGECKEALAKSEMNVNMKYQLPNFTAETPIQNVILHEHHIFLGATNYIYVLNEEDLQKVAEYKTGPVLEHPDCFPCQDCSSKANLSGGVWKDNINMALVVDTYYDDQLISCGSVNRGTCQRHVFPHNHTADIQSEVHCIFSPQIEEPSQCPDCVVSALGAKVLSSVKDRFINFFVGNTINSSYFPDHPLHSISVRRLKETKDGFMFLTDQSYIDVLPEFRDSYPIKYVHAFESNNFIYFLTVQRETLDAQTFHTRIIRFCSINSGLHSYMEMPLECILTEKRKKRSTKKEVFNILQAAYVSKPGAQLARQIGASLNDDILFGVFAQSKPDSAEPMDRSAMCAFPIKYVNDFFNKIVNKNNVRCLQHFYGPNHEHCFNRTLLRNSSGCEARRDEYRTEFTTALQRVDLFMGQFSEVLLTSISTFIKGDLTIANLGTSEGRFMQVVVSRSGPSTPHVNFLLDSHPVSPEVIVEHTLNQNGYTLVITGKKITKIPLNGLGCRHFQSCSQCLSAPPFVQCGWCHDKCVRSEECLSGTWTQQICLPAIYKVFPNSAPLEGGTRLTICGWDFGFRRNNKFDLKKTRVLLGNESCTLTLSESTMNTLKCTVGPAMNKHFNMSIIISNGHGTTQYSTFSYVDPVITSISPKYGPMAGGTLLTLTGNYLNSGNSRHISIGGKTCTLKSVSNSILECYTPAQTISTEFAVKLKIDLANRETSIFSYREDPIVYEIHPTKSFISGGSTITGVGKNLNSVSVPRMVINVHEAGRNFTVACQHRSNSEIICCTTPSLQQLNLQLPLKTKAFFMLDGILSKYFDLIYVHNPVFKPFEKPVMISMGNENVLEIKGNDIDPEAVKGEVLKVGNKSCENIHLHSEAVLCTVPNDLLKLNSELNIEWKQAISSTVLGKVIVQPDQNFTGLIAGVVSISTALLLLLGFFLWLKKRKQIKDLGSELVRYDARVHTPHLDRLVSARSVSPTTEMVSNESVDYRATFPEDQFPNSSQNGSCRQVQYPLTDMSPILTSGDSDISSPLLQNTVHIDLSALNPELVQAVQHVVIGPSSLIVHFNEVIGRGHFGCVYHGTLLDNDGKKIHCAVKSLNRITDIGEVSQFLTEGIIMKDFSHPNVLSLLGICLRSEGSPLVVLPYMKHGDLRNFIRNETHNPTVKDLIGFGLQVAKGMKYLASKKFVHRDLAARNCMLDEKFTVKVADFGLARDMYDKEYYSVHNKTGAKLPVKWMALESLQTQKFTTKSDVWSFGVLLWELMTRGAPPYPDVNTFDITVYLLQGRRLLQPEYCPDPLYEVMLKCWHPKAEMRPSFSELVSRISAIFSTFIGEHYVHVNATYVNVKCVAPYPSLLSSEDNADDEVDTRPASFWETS

In the case of `CCN1CCN(Cc2ccc(NC(=O)c3ccc(C)c(/C=C/c4cnc5[nH]ccc5c4OC)c3)cc2C(F)(F)F)CC1`, the inhibition in experiment [1] is 81%; in experiment [2], 1.4%; in experiment [3] it was 57%. Also, the residual activity in experiment [4] worked out at 100%.

For the compound `CCN1CCN(Cc2ccc(NC(=O)c3ccc(C)c(Oc4ccnc5[nH]ccc45)c3)cc2C(F)(F)F)CC1`, the values for the inhibition in experiment [5] and in experiment [6] were 30% and 14.4%, respectively. The same compound had a % of control in experiment [7] of 1.7%.

A word on the inhibition: it is the drop in the measured response relative to a control, in per cent. The low end stands for a weak effect, the high end for a strong effect. One may read the residual activity as the signal under treatment as a percentage of the control signal.
